Results from patent US8809358B2, “Use of IκB-kinase inhibitors in pain therapy” (Sanofi-Aventis Deutschland GmbH, priority 2002, dated 2014).

What was measured:
[1] = system: Kaolin/carrageenan-induced knee joint inflammation; test: Kaolin/carrageenan-induced knee joint inflammation in the rat: reaction of spinal neurons during pressure stimulation of the knee; format: in vivo
Description: (§1) • Zymosan-induced paw inflammation in the rat; • Parameter: paw withdrawal time or paw withdrawal threshold during thermal or mechanical stimulation of the hind paw. 2nd Model: • Kaolin/carrageenan-induced knee joint inflammation in the rat; • Parameter: reaction of spinal neurons during pressure stimulation of the knee. Model 1
Experimental implementation: In rats which were under sodium thiopental anesthesia, the spinal canal was opened and spinal medullary neurons which processed the “pain impulses” from the knee-joint were identified. Following identification, a long-term recording, in which the activity of the nerve cell was recorded before and during the development of an acute inflammation in the knee-joint, was carried out. For this, the responses to non-noxious and noxious stimulation at the knee-joint were measured in a control period before inducing the inflammation and for several hours after inducing the inflammation.
The acute inflammation was induced by the intraarticular injection of a suspension (about 150 μl) of kaolin and carrageenan. In controlled experiments, only the vehicle was applied to the spinal medullary surface in order to represent the development of the hyperexcitability under control conditions. As a rule, this development of hyperexcitability took place within 2 to 4 hours and was expressed in a marked increase in the responses to non-noxious and noxious stimulation of the knee-joint (Tab. 3). […] The responses of the cell to non-noxious and noxious stimulation were then subsequently monitored as in the control experiments.

[2] = system: Zymosan-induced paw inflammation; test: Zymosan-induced paw inflammation in the mouse: spontaneous running performance in a running wheel; format: in vivo, C57/B6 mice; settings: for Statistical difference as compared with the vehicle: running wheel AUC, seven days
Procedure: 4th Model: • Zymosan-induced paw inflammation in the mouse; • Parameter: spontaneous running performance in a running wheel. In the cage in which it is kept, the experimental animal has access to a running wheel, the revolutions of which are recorded electronically. During the night hours, the C57/B6 mice use the running wheel voluntarily and, after a one-week phase of acclimatization, cover on average 4 100 meters/night. After zymosan has been injected, the distance run each night is reduced. This reduction in running performance is a valid parameter for a restriction in function which is due to inflammation pain. Experimental implementation: After an acclimatization phase of one week, the distance run/24 hours was measured in order to determine the base line. 25 μl of a suspension containing 50 mg of zymosan/ml were then injected into the right hind paw of the experimental animal during short-term anesthesia using isoflurane. The distance run/24 hours was then determined during the following seven days. In the analysis, the area under the curve for the values for the distance run was determined (AUC, tab. 7): the lower the AUC, the lower was the running performance during the week following injection of the zymosan. […] The substance was administered for the first time on day 1 after injection of the zymosan.

[3] = system: Zymosan-induced paw inflammation; test: Zymosan-induced paw inflammation in the rat: paw withdrawal threshold during mechanical stimulation (von Frey test); format: in vivo; settings: for Change in the paw withdrawal threshold (%): 30 mg/kg i.p. 15 min before, 2.5 and 5.5 h after Zymosan
Procedure: as §1
Experimental implementation: in short-term anesthesia using isoflurane, 1 mg of Zymosan (as a suspension in 100 μl of PBS (phosphate-buffered salt solution)) was injected subcutaneously into the middle of the plantar side of one of the experimental animal's hind paws. After that, two different behavioral tests were used to quantitatively determine the development of a hyperalgesia.
b) Determining the Paw Withdrawal Threshold During Mechanical Stimulation (von Frey Test)
The experimental animal was placed in a transparent plastic chamber whose floor consisted of wire-gauze. Punctuate pressure of defined strength was produced using calibrated nylon fibers, what are termed von Frey hairs. The weakest pressure stimulation during which the animal withdrew its paw determines the mechanical pain threshold.
About half an hour before, and at various times after, the Zymosan injection, the thermal and mechanical pain thresholds were determined on the right hind paw and on the left hind paw (see Tables 1, 2). The decrease in the ipsilateral pain threshold, expressed in % of the contralateral pain threshold, was then calculated (see Tables 1, 2). The degree of hyperalgesia is directly proportional to the magnitude of this decrease.
In a control group, the Zymosan injection induced pronounced mechanical and thermal hyperalgesia (see control data in Tabs. 1 and 2).

[4] = system: Zymosan-induced paw inflammation; test: Zymosan-induced paw inflammation in the mouse: paw withdrawal time during thermal stimulation of the hind paw; format: in vivo; settings: for Statistical difference as compared with the vehicle: thermal hyperalgesia AUC
Procedure: • Zymosan-induced paw inflammation in the mouse; • Parameter: paw withdrawal time during thermal stimulation of the hind paw. Experimental implementation: In short-term anesthesia using isoflurane, 25 μl of a suspension containing 50 mg of zymosan/ml were injected into the right hind paw of the experimental animal. The development of a hyperalgesia was then determined quantitatively as follows: Determining the Paw Withdrawal Time During Thermal Stimulation (Hargreave's Test; See Above). The experimental animal was placed in a transparent plastic chamber having a glass floor. As soon as the experimental animal was no longer moving, following the reconnaissance phase (about 5 min), an infrared light source was positioned directly below the hind paw to be stimulated and switched on. The lamp emitted focused infrared light of increasing intensity such that the skin temperature of the hind paw increased almost linearly. As soon as the animal withdrew the paw, the lamp switched itself off. The temperature of the paw at the time it is withdrawn has just become unpleasant for the animal; this is referred to as the thermal pain threshold. Shortly before the zymosan injection, and for from 7 to 14 days after the injection, the thermal pain threshold was determined once daily on the right hind paw and left hind paw. Subsequently, the integral of the area which was formed from the curves for the paw withdrawal times of the inflamed paw and the noninflamed paw (AUC, area between the curves, see tables 5 and 6) was determined as a measure of the hyperalgesia. The larger this value is, the more pronounced is the hyperalgesia, and the smaller the value is in animals which are being given the substance, the greater is the success of the therapy. […] A very high dose of paracetamol was likewise administered twice daily to another group of animals which was taken through the experiment in parallel. […] The scheme for zymosan injection and dosing was identical to that in the previously described study. The only difference was that this additional study ran for 14 days.

CNc1nccc(-c2cc3cc(C(=O)N[C@@H](CN(c4ccccc4)c4ccccc4)c4n[nH]c(=O)o4)ccc3[nH]2)n1 [Compound 13, N—[(S)-2-diphenylamino-1-(5-oxo-4,5-dihydro[1,3,4]oxadiazol-2-yl)ethyl]-2-(2-methylaminopyrimidin-4-yl)-1H-indole-5-carboxamide] was tested, and the “Neuronal responses before and during knee-joint inflammation (imp/15 s), mean value” ([1]; Non-noxious stimulation at the knee-joint, about 30 μl of 10 μM solution on spinal medulla, Baseline) was 0.92 imp/15 s, the “Neuronal responses before and during knee-joint inflammation (imp/15 s), mean value” ([1]; Noxious stimulation at the knee-joint, about 30 μl of 10 μM solution on spinal medulla, 120-180 min after K/C injection) was 8.5 imp/15 s and the “Neuronal responses before and during knee-joint inflammation (imp/15 s), mean value” ([1]; Noxious stimulation at the knee-joint, about 30 μl of 10 μM solution on spinal medulla, Baseline) was 0.8 imp/15 s. For the same compound, the “development of spinal hyperexcitability compared with the controls” value ([1]; rat, about 30 μl of 10 μM solution on spinal medulla) was “almost completely suppressed”, the “effect on the responses to noxious knee-joint stimulation compared with indomethacin” value ([1]; rat, comparison with published data from an earlier study) was “more strongly expressed” and the “distance run as compared with the vehicle group” value ([2]; mouse, 7 days, both the higher doses) was “dose-dependent increase”. For the same compound, the “Statistical difference as compared with the vehicle” value (“Statistical difference” for short) ([2]; 2.8 mg/kg twice daily) was “no”, the “Statistical difference” value ([2]; 25 mg/kg twice daily) was “yes” and the “Statistical difference” value ([2]; 75 mg/kg twice daily) was “yes”. The “onset of the effect on mechanical hyperalgesia after Zymosan injection” value ([3]; 30 mg/kg i.p.) was 1 h, the “Change in the paw withdrawal threshold (%)” value (“Change … (%)” for short) ([3]; 2 h after Zymosan injection) was −36.0% and the “Change … (%)” value ([3]; 24 h after Zymosan injection) was −9.7%. The “Change … (%)” value ([3]; Baseline −0.5 h) was 0.0%, the mechanical hyperalgesia ([3]; 30 mg/kg i.p. three times) was “significantly reduced” and the “persistence of the effect on mechanical hyperalgesia after the last administration” value ([3]; 30 mg/kg i.p. three times) was at least 18 h. For the same compound, the “activity in the test model” value ([3]; mechanical hyperalgesia) was “very strong”, the “activity in the test model” value ([4]; mouse, 7-day study) was “very strong activity” and the “reduction of thermal hyperalgesia compared with paracetamol” value ([4]; mouse, 7-day study) was “to a greater extent”. The “AUC (thermal hyperalgesia), dose dependence” value ([4]; mouse, 7-day study, orally twice daily) was “decreased in a dose-dependent manner”, the “thermal hyperalgesia, dose dependence” value ([4]; mouse, 14-day study) was “reduce thermal hyperalgesia in a dose-dependent manner” and the “effect on thermal hyperalgesia at the high dosage, compound 13 versus Celecoxib” value ([4]; mouse, 14-day study, high dosage) was “equally strong effects”. For the same compound, the “Statistical difference” value ([4]; 14 days, 25 mg/kg) was “yes”, the “Statistical difference” value ([4]; seven days, 2.8 mg/kg orally twice daily) was “no” and the “Statistical difference” value ([4]; seven days, 25 mg/kg orally twice daily) was “yes”. The “Statistical difference” value ([4]; seven days, 75 mg/kg orally twice daily) was “yes”.
